Like-named read-outs stand apart in the source and are kept apart here.
Experiments:
[1] = system: Cullin-3 (CUL3) neddylation; test: AlphaLISA assay for Cullin-3 (CUL3) neddylation in TF 1 cells; format: cell-based; details: 3 hours treatment
Description: An AiphaLISA assay was performed to evaluate the ability of the compounds to suppress neddylation, which is downstream from DCN-1 and DCN-2. A stronger inhibition of DCN-1 and DCN-2 is expected to result in a suppression of neddylation as shown by a lower AlphaLISA signal. The AlphaLISA assay for detecting Cullin-3 (CUL3) neddylation was performed according to manufacturer instructions (Revvity, Hopkinton, MA). Briefly, TF 1 cells (ATCC) were plated in Iscove's Modified Dulbecco's Medium (IMIDM) without supplements in 384-well plates. These cells were treated with […] for 3 hours before lysing them with AlphaLISA lysis buffer, 5× (Revvity). To detect the level of CUL3 neddylation, biotinylated anti-NEDD8 antibody, was added followed by AlphaLISA Acceptor beads conjugated with anti-CUL3 antibody. After overnight incubation, Streptavidin-coated Alpha Donor beads were added and incubated for 1 hour. The AlphaLISA signal was then read on a VICTOR Nivo Multimode Microplate Reader (Revvity, Hopkinton, MA). The positive control was 1 μM DI-1548, which is reported to reduce CUL3 neddylation, also referred to as C-1 in Example 41 (Zhou et al. Nature Comm. 2021). The neddylation signal was normalized such that the percent inhibition is 0% for vehicle control and 100% for positive control. The dose-response curves were fitted with the Hill equation to obtain IC50 values (Graphpad Prism).

[2] = target: DCN1 (DCUND1) protein PONY domain (Homo sapiens (Human), UniProt Q96GG9); test: TR-FRET assay, DCN1 binding with FAM-labeled probe
Method in brief: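 Binding was read as the TR-FRET ratio between a FAM-tagged inhibitor probe and Tb-labeled biotinylated E. coli-expressed DCN1 PONY domain, measured 1, 5 and 24 h after compound addition. The two setups used 5 nM protein/20 nM FAM-probe or 0.31 nM protein/900 nM total probe (100 nM labeled), in TritonX buffer with 200 mM NaCl.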

[3] = 24 hr after treatment with compound, read-out: TR FRET IC50 24 hr
[4] = TR FRET IC50 1 hr (nM), 1 hr after treatment with compound

DCN1 (DCUND1) protein PONY domain, sequence (Q96GG9 60-248): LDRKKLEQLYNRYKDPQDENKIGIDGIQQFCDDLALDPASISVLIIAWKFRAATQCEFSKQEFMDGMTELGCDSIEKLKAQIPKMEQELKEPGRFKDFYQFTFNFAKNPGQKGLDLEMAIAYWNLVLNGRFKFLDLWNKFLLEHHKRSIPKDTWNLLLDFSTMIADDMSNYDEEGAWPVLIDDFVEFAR

SMILES	IC50 ([1]; Homo sapiens, TF-1, 3 h) [nM]	IC50 [2, 3] [nM]	IC50 [2, 4] [nM]	IC50 [1] [nM]	IC50 ([2]; read-out: TR FRET IC50 1 hr, 1 hr after treatment with compound) [nM]
CN1C(=O)[C@@H](NC(=O)c2cccc(C(F)(F)F)c2)[C@@H](C2CC2)c2c(C(=O)N3[C@H](C#N)C[C@H]4C[C@H]43)nn(C3CCOCC3)c21 (relative stereo) [Compound I-650, N-((4S*,5S*)-3-((1R,3S,5R)-3-cyano-2-azabicyclo[3.1.0]hexane-2-carbonyl)-4-cyclopropyl-7-methyl-6-oxo-1-(tetrahydro-2H-pyran-4-yl)-4,5,6,7-tetrahydro-1H-pyrazolo[3,4-b]pyridin-5-yl)-3-(trifluoromethyl)benzamide]	≤ 100	≤ 200	≤ 200	–	–
CCN1C(=O)[C@@H](NC(=O)c2cccc(C(F)(F)F)c2)[C@@H](C2CC2)c2c(C(=O)N3CC[C@H](NC)[C@H]3C#N)nn(C3CCOCC3)c21 (relative stereo) [Compound I-687, N-((4S,5S)-3-((2S*,3S*)-2-cyano-3-(methylamino)pyrrolidine-1-carbonyl)-4-cyclopropyl-7-ethyl-6-oxo-1-(tetrahydro-2H-pyran-4-yl)-4,5,6,7-tetrahydro-1H-pyrazolo[3,4-b]pyridin-5-yl)-3-(trifluoromethyl)benzamide]	≤ 100	≤ 200	≤ 200	–	–
CCN1C(=O)[C@@H](NC(=O)c2cccc(C(F)(F)F)c2)[C@@H](c2ccc(F)cc2)c2c(CN(C#N)CCCCN(C)C)nn(-c3ccccc3)c21 (single isomer, unassigned) [Compound I-249, ˜{N}-[(4˜{S},5˜{R})-3-[[cyano-[4-(dimethylamino)butyl]amino]methyl]-7-ethyl-4-(4-fluorophenyl)-6-oxo-1-phenyl-4,5-dihydropyrazolo[3,4-b]pyridine-5-yl]-3-(trifluoromethyl)benzamide]	100 to 1000	200 to 1000	200 to 1000	–	–
CCN1C(=O)[C@@H](NC(=O)c2cccc(C(F)(F)F)c2)[C@@H](C2CC2)c2c(C(=O)N3CCN(C)C[C@@H]3C#N)nn(C3CCOCC3)c21 (single isomer, unassigned) [Compound I-431]	100 to 1000	200 to 1000	200 to 1000	–	–
CCN1C(=O)[C@@H](NC(=O)c2nccc(C(F)(F)F)n2)[C@H](c2ccc(F)cc2)c2c(CC(=O)N[C@@H](C)C#N)nn(-c3ccccc3)c21 (single isomer, unassigned) [Compound I-451]	> 1000	1000 to 3000	1000 to 3000	–	–
CCN1C(=O)[C@@H](NC(=O)N2CCC[C@@H](C(F)(F)F)C2)C(c2ccc(F)cc2)c2c(C(=O)N3CCC[C@H]3C#N)nn(-c3ccccc3)c21 (single isomer, unassigned) [Compound I-464]	> 1000	1000 to 3000	1000 to 3000	–	–
CCN1C(=O)[C@@H](NC(=O)c2cccc(C(F)(F)F)c2)[C@@H](c2ccc(F)cc2)c2c(C(=O)N3[C@H](C#N)C[C@H]4C[C@H]43)nn([C@@H]3CCOC3)c21 (single isomer, unassigned) [Compound I-482]	–	≤ 200	–	≤ 100	≤ 200
CCN1C(=O)[C@@H](NC(=O)N2CCC[C@H](C(F)(F)F)C2)[C@@H](c2ccc(F)cc2)c2c(C(=O)N3CCC[C@H]3C#N)nn(-c3ccccc3)c21 (single isomer, unassigned) [Compound I-501]	> 1000	200 to 1000	1000 to 3000	–	–
CCN1C(=O)[C@@H](NC(=O)c2cccc(C(F)(F)F)c2)[C@@H](C2CC2)c2c(C(=O)N3CCNC[C@@H]3C#N)nn(-c3ccccc3)c21 (single isomer, unassigned) [Compound I-518]	≤ 100	≤ 200	200 to 1000	–	–
CCN1C(=O)[C@H](NC(=O)c2cccc(C(F)(F)F)c2)[C@H](c2ccc(F)cc2)c2c(C(=O)N3[C@H](C#N)C[C@H]4C[C@H]43)nn([C@@H]3CCOC3)c21 (single isomer, unassigned) [Compound I-562]	–	1000 to 3000	1000 to 3000	> 1000	–
CCN1C(=O)[C@@H](NC(=O)c2cccc(C(F)(F)F)c2)[C@@H](c2ccc(F)cc2)c2c(C(=O)N3[C@H](C#N)C[C@H]4C[C@H]43)nn([C@@H]3CCOC3)c21 (single isomer, unassigned) [Compound I-583]	–	1000 to 3000	1000 to 3000	> 1000	–
CCN1C(=O)[C@@H](NC(=O)c2nccc(C(F)(F)F)n2)[C@H](c2ccc(F)cc2)c2c(CC(=O)N[C@H](C)C#N)nn(-c3ccccc3)c21 (single isomer, unassigned) [Compound I-607]	> 1000	1000 to 3000	200 to 1000	–	–

Reference: US20250163057A1, “DCN-1 MODULATING COMPOUNDS AND METHODS OF USE THEREOF” (Cellarity, Inc., priority 2023, published 2025)
